Patent US12202785B2 (Texas Tech University System, priority 2018, dated 2025)
Entries after “also recorded” stand apart in the source; their conditions may differ.

What was measured:
[1] = tested on: Drinking In the Dark (DID) murine model of binge drinking; experiment: Drinking In the Dark (DID) murine model of binge drinking; type: in vivo, mice; settings: for binge ethanol consumption: figure legends FIG. 8C to 15C, dose not given
Procedure: Using a standard Drinking In the Dark (DID) murine model of binge drinking, we tested the effect of 0, 25, 35, 50 and 100 mg/kg per os (p.o.) acetylated minocycline (derivative Y, or CMM1) vs control.

[2] = tested on: DBA/2J mice, alcohol withdrawal symptoms; experiment: Alcohol withdrawal, Handling Induced Convulsion scores; type: in vivo
Procedure: Female and male DBA/2J mice were tested with CMM1, 100 mg/kg p.o., at 2 hrs following 4 g/kg 20% ethanol in saline. Shown are the Handling Induced Convulsion scores, background subtracted and summed over 24 hours. […] Mean±SEM, n=5/group.

[3] = tested on: Large White x Landrace hybrid swine; experiment: Two-bucket choice water vs 5% ethanol in swine; settings: 10 mg/kg p.o., n=3/group
E. coli = E. coli zone of inhibition (ZOI) and recovered colony forming units (CFU) per disk; type: cell-based; settings: dose response
Procedure: Minocycline and two acetylated derivatives, CMM1 (B) and CMM2 (Y), were tested in a dose response manner for A) zone of inhibition (ZOI) and B) recovered colony forming units (CFU) per disk.

[4] = cited from earlier work
AUD traits = settings: seven tetracyclines tested; earlier published work of the inventors; cited from earlier work
DID consumption = experiment: DID ethanol consumption after intracerebroventricular (ICV) dosing; type: in vivo; settings: 3 ul of 9 mg/ml icv 20 hrs prior to DID testing; n=9-11; p<0.01
Procedure: To test the hypothesis that tigecycline works at the level of the CNS, rather than the PNS, 3 ul of drug (9 mg/ml) was given icy 20 hrs prior to DID testing. n=9-11, mean±SEM, **p<0.01.

DID ethanol consumption = experiment: Drinking In the Dark (DID) ethanol consumption after ten-day GI microbiome sterilization; type: in vivo; settings: 100 mg/kg i.p.; ampicillin, neomycin, metronidazole, vancomycin pre-treatment vs none; n=7
Procedure: A ten-day “sterilization” treatment with ampicillin, neomycin, metronidozale and vancomycin was used. Bedding was changed daily to avoid repopulation. DID was started on day 11 after one day of no metronidazole. Tigecycline was given at 100 mg/kg intraperitoneal (i.p.) n=7, mean±SEM.

With `CCCCOc1ccc(N(C)C)c2c1C(=O)C1=C(O)C3(O)C(=O)C(C(N)=O)=C(O)C(N(C)C)C3CC1C2` (stereo not shown) [Butyl Ether Minocycline, 10-Butoxy-4,7-bis-dimethylamino-3,12,12a-trihydroxy-1,11-dioxo-1,4,4a,5,5a,6,11,12a-octahydro-naphthacene-2-carboxylic acid amide] the binge ethanol consumption [1] was “reduction of binge ethanol consumption”.

With `CC(=O)NC(=O)c1c(OC(C)=O)c2c(c(N(C)C)c1OC(C)=O)CC1Cc3c(N(C)C)ccc(OC(C)=O)c3C(=O)C1=C2OC(C)=O` (stereo not shown) [CMM1, Acetic acid 3,10,12-triacetoxy-2-acetylcarbamoyl-4,7-bis-dimethylamino-11-oxo-5,5a,6,11-tetrahydro-naphthacen-1-yl ester] the “efficacy on withdrawal compared with parent drug minocycline” value ([2]; 100 mg/kg p.o.) was “more effective than the parent drug”, the “efficacy on withdrawal, females vs males” value ([2]; 100 mg/kg p.o.) was “more effective in females” and the “alcohol withdrawal symptoms (Handling Induced Convulsion scores, background subtracted, summed over 24 hours)” value ([2]; 100 mg/kg p.o. at 2 hrs following 4 g/kg 20% ethanol, female and male, n=5/group) was “reduced alcohol withdrawal symptoms”. The “onset, peak and duration of withdrawal symptoms” value ([2]; 100 mg/kg p.o., n=5/group) was “reduced onset, peak and duration of withdrawal symptoms”, the alcohol preference [3] was “reduced” and the total ethanol consumption [3] was “reduced”. The “dose dependence of reduction of alcohol consumption” value ([1]; 0, 25, 35, 50 and 100 mg/kg p.o.) was “dose-dependent response”, the “ethanol consumption (drinking)” value ([1]; 0, 25, 35, 50 and 100 mg/kg p.o. vs control, n=4/group, p=0.004) was “significantly reduced drinking” and the water consumption ([1]; FIGS. 5A to 5D) was “not water consumption”. The “antibiotic activity (ZOI and recovered CFU per disk)” value (E. coli) was “loss of antibiotic activity even at high doses”.

With `CC(=O)NC(=O)c1c(OC(C)=O)c2c(c(N(C)C)c1OC(C)=O)CC1Cc3c(N(C)C)ccc(OC(C)=O)c3C(=O)C1=C2O` (stereo not shown) [CMM2, Acetic acid 3,10-diacetoxy-2-acetylcarbamoyl-4,7-bis-dimethylamino-12-hydroxy-11-oxo-5,5a,6,11-tetrahydro-naphthacen-1-yl ester] the “antibiotic activity (ZOI and recovered CFU per disk)” value (E. coli) was “loss of antibiotic activity even at high doses”.

With `CC(=O)NC(=O)c1c(O)cc2c(c1O)C(O)=C1C(=O)c3c(OC(C)=O)ccc(N(C)C)c3CC1C2` (stereo not shown) [De Methyl Diacetate Minocycline, Acetic acid 9-acetylcarbamoyl-4-dimethylamino-8,10,11-trihydroxy-12-oxo-5,5a,6,12-tetrahydro-naphthacen-1-yl ester] the binge ethanol consumption [1] was “reduction of binge ethanol consumption”.

In the case of `CN(C)[C@@H]1C(O)=C(C(N)=O)C(=O)[C@@]2(O)C(O)=C3C(=O)c4c(O)ccc(Cl)c4[C@@H](O)[C@H]3C[C@@H]12` [Demeclocycline], the LogD [4] is given as −3.40 and the LogP [4] is given as −1.07.

For `C[C@H]1c2cccc(O)c2C(=O)C2=C(O)[C@]3(O)C(=O)C(C(N)=O)=C(O)[C@@H](N(C)C)[C@@H]3[C@@H](O)[C@@H]21` [Doxycycline], the LogD [4] is listed as −3.29, the LogP [4] is listed as −0.54 and the “efficacy against AUD traits” value (AUD traits) is listed as “efficacious; also recorded: effective”.

With `CCOc1ccc(N(C)C)c2c1C(=O)C1=C(O)C3(O)C(=O)C(C(N)=O)=C(O)C(N(C)C)C3CC1C2` (stereo not shown) [Ethyl Ether Minocycline, 4,7-Bis-dimethylamino-10-ethoxy-3,12,12a-trihydroxy-1,11-dioxo-1,4,4a,5,5a,6,11,12a-octahydro-naphthacene-2-carboxylic acid amide] the binge ethanol consumption [1] was “reduction of binge ethanol consumption”.

For `COc1ccc(N(C)C)c2c1C(=O)C1=C(O)C3(O)C(=O)C(C(N)=O)=C(O)C(N(C)C)C3CC1C2` (stereo not shown) [Methyl Ether Minocycline, 4,7-Bis-dimethylamino-3,12,12a-trihydroxy-10-methoxy-1,11-dioxo-1,4,4a,5,5a,6,11,12a-octahydro-naphthacene-2-carboxylic acid amide], the binge ethanol consumption [1] was “reduction of binge ethanol consumption”.

In the case of `COc1ccc(N(C)C)c2c1C(=O)C1=C(O)c3c(O)c(C(=O)NC(C)=O)c(O)c(N(C)C)c3CC1C2` (stereo not shown) [Methyl Ether N-Monoacetate Minocycline, 4,7-Bis-dimethylamino-1,3,12-trihydroxy-10-methoxy-11-oxo-5,5a,6,11-tetrahydro-naphthacene-2-carboxylic acid acetyl-amide], the binge ethanol consumption [1] is reported as “reduction of binge ethanol consumption”.

For `COc1ccc(N(C)C)c2c1C(=O)C1=C(O)c3c(c(N(C)C)c(OC(C)=O)c(C(=O)NC(C)=O)c3OC(C)=O)CC1C2` (stereo not shown) [Methyl Ether Tri Acetate Minocycline, Acetic acid 4-acetoxy-3-acetylcarbamoyl-1,10-bis-dimethylamino-5-hydroxy-7-methoxy-6-oxo-6,11,11a,12-tetrahydro-naphthacen-2-yl ester], the binge ethanol consumption [1] was “reduction of binge ethanol consumption”.

In the case of `CN(C)c1ccc(O)c2c1CC1CC3C(N(C)C)C(O)=C(C(N)=O)C(=O)C3(O)C(O)=C1C2=O` (stereo not shown) [Minocycline, 4,7-Bis-dimethylamino-3,10,12,12a-tetrahydroxy-1,11-dioxo-1,4,4a,5,5a,6,11,12a-octahydro-naphthacene-2-carboxylic acid amide], the “efficacy against AUD traits” value (AUD traits) is listed as “efficacious; also recorded: effective” and the “antibiotic activity (ZOI and recovered CFU per disk)” value (E. coli) is listed as “eliminated E. coli”.

For `CN(C)[C@@H]1C(=O)C(C(N)=O)=C(O)[C@@]2(O)C(=O)C3=C(O)c4c(O)cccc4[C@@](C)(O)[C@H]3[C@H](O)[C@@H]12` [Oxytetracycline], the LogD [4] is listed as −4.25 and the LogP [4] is listed as −1.5.

For `CC(=O)NC(=O)c1c(OC(C)=O)c2c(c(N(C)C)c1OC(C)=O)CC1Cc3c(N(C)C)ccc(OC(C)=O)c3C(=O)C1=C2OC(C)=O` (stereo not shown) [Penta Acetyl Minocycline, Acetic acid 3,10,12-triacetoxy-2-acetylcarbamoyl-4,7-bis-dimethylamino-11-oxo-5,5a,6,11-tetrahydro-naphthacen-1-yl ester], the binge ethanol consumption [1] was “reduction of binge ethanol consumption”.

For `CCCOc1ccc(N(C)C)c2c1C(=O)C1=C(O)C3(O)C(=O)C(C(N)=O)=C(O)C(N(C)C)C3CC1C2` (stereo not shown) [Propyl Ether Minocycline, 4,7-Bis-dimethylamino-3,12,12a-trihydroxy-1,11-dioxo-10-propoxy-1,4,4a,5,5a,6,11,12a-octahydro-naphthacene-2-carboxylic acid amide], the binge ethanol consumption [1] was “reduction of binge ethanol consumption”.

With `CC(=O)NC(=O)c1c(OC(C)=O)c2c(c(N(C)C)c1OC(C)=O)CC1Cc3c(N(C)C)ccc(OC(C)=O)c3C(=O)C1=C2O` (stereo not shown) [Tetra Acetyl Minocycline, Acetic acid 3,10-diacetoxy-2-acetylcarbamoyl-4,7-bis-dimethylamino-12-hydroxy-11-oxo-5,5a,6,11-tetrahydro-naphthacen-1-yl ester] the binge ethanol consumption [1] was “reduction of binge ethanol consumption”.

In the case of `CN(C)c1cc(NC(=O)CNC(C)(C)C)c(O)c2c1C[C@H]1C[C@H]3[C@H](N(C)C)C(O)=C(C(N)=O)C(=O)[C@@]3(O)C(O)=C1C2=O` [Tigecycline], the LogD [4] is given as −2.73, the LogP [4] is given as −1.30 and the DID ethanol consumption (DID consumption) is given as “reduced DID consumption”. The “efficacy against AUD traits” value (AUD traits) was “efficacious; also recorded: effective” and the “DID ethanol consumption / efficacy of tigecycline after gut sterilization” value (DID ethanol consumption) was “No significant difference”.
